Data as given in US20010041724A1, “METHOD FOR THE CONTROL OF FLEA BEETLES IN CANOLA” (priority 1998, published 2001).

Legend:
[1] = test system: Phyllotreta spp. (flea beetles); experiment: Canola seed treatment, shot-hole damage assessment post-emergence; assay type: in vivo; conditions: 4, 7, 10 and 14 days post-emergence
Protocol: Acetamiprid is applied to canola seed at rates of 7.5, 10, and 12.5 grams of active ingredient per kg of seed. Imidacloprid is applied to canola seed at rate of 15 g/kg of seed. The seed is planted and allowed to grow. At 4, 7, 10 and 14 days post-emergence of the plant, damage is assessed for the plants by looking for shot-hole damage.

canola = experiment: Canola seed treatment, yield at end of growing season; assay type: in vivo; conditions: canola seed treated with acetamiprid; end of the growing season

C/C(=N\C#N)N(C)Cc1ccc(Cl)nc1 [acetamiprid, (E)-N^1-[(6-chloro-3-pyridyl)methyl]-N^2-cyano-N^1-methylacetamidine]
control of shot-hole damage relative to imidacloprid ([1]; acetamiprid 7.5, 10 and 12.5 g a.i./kg canola seed vs imidacloprid 15 g/kg seed): substantially more control than imidacloprid | control of shot-hole damage relative to two stage lindane+terbufos treatment ([1]; acetamiprid 7.5, 10 and 12.5 g a.i./kg canola seed): generally equivalent to the two stage lindane+terbufos treatment | yield of plants grown from treated seed (canola): general yield increase
